The source of these data is PMC12057046, “Elucidation of short linear motif-based interactions of the MIT and rhodanese domains of the ubiquitin-specific protease 8” (Biology Direct, 2025).

One experiment concerns USP8 MIT domain. Put plainly: Peptide-phage display-based deep mutational scanning (DMS), USP8 MIT domain. The experiment is classed as binding, human. The settings on record: bait USP8_MIT__P40818_1_142; EFCAB12 (Q6NXP0) 2-17; pair of mutant with wild-type wt_00016 (MDDDYEAYHSLFLSLL); sheet S3.B_ProP-PD_pairs. On the procedure:
The residues of these 16 amino acid-long wild-type peptides were substituted to all natural amino acid residues, except cysteine, in all positions (Supplementary Table S2A). The designed peptide sequences were reverse-translated to oligonucleotides optimized to the codon usage of E. coli. The required flanking regions (5´[…] and 3´[…]) were added for library construction. The library was generated as previously described.
Four rounds of phage selections were carried out using the second generation human disorderome library or the constructed deep mutational scanning library. At least three individual replicates were used for each bait protein. 10 µg of GST-tagged proteins or GST control (diluted in PBS from the stock of proteins kept in the purification elution buffer) were immobilized in 100 µL PBS on a 96-well MaxiSorp (Nunc) plate overnight at 4 °C. The plates were incubated with blocking buffer (with 0.5% BSA in PBS) for 1 h at 4 °C followed by washing with 0.05% Tween 20 in PBS four times. The naïve phage library (10^11 CFU) was diluted in 1/5th volume PEG/NaCl (20% PEG-8000, 0.4 M NaCl) and 1X PBS, incubated on ice for 10 min and centrifuged at 10,000 [drawing 3] g for 10 min. The pellet was resuspended in the volume of PBS (100 µL/ well). The GST-coated control plate was incubated with 100 µL library per well in PBS for 1 h at 4 °C to remove non-specific binders. The supernatant was transferred to the target wells and incubated for 2 h at 4 °C. The wells were washed five times with 0.05% Tween 20 in PBS and the bound phages were eluted with 100 µL per well log-phase E. coli OmniMAX by incubating at 37° C while shaking. After 30 min, M13KO7 helper phages were added and incubated for an additional 45 min. The bacterial cultures were transferred to 1 mL 2YT supplemented with 100 µg/mL carbenicillin, 30 µg/mL kanamycin and 0.3 mM IPTG and grew overnight at 37 °C while shaking. The following day the cultures were centrifuged for 10 min at 2,000 [drawing 4] g, 4 °C. 1/10th volume of 10 [drawing 5] PBS was added to adjust the pH and heated at 65 °C for 10 min. The phage pools from each round were used as in-phages for the next round of selections.
The samples were prepared for NGS as previously described. Peptide-coding regions of the enriched phage pools were amplified and barcoded using Phusion High-Fidelity PCR Master Mix (Thermo Fisher) for 22 cycles and confirmed by 2% agarose gel electrophoresis. The PCR products were normalized with 25 µL Mag-bind Total Pure NGS beads (Omega Biotek) and 10 µL of each eluted sample (Qiagen Elution Buffer) was pooled and cleaned-up with a PCR purification kit (Qiagen). The PCR product was confirmed by 2% agarose electrophoresis and the band was extracted with QIAquick Gel extraction Kit (Qiagen) and eluted with 30 µL TE buffer. The dsDNA was quantified using QuantiT PicoGreen dsDNA Assay Kit (Thermo Fisher) and sent for NGS (Illumina MiSeq v3, 1 × 150 bp read setup, 20% PhiX, NGI SciLifeLab facility, Sweden). The NGS data were demultiplexed, adapter regions were trimmed and sequences with an average quality of at least 20 were translated to peptide sequences. The NGS data were analysed using custom Python scripts. The total read NGS counts for each selection experiment of each peptide sequence were compiled and annotated in PepTools (https://slim.icr.ac.uk/tools/peptools/). Since ProP-PD is in essence a competition assay, the possibility of the input phage library influencing the selection outcome was explored. For this, the Pearson correlation coefficient, p-value and coefficient of determination were calculated for all peptide NGS count fractions in the library coverage vs. in the selections results (Supplementary Fig. S7; Supplementary Table S2B; Supplementary Table S3B; Supplementary Table S7B). Pearson correlation coefficient and p-value were calculated using Python’s SciPy library. […]
The sequence MDDGYEAYHSLFLSLL [mut_04378] had a hit_pair_ratio of 3.46.

For the sequence MDDDYEGYHSLFLSLL [mut_04432], the hit_pair_ratio amounted to 1.19.

MDDFYEAYHSLFLSLL [mut_04377] came in with a hit_pair_ratio of 337.92. Still for that read-out and setting: to MDDDYEVYHSLFLSLL [mut_04444] belongs 28.27; to MDDDLEAYHSLFLSLL [mut_04401], 337.92; to MDDDYEFYHSLFLSLL [mut_04431], 83.09. As for MDDDYETYHSLFLSLL [mut_04443], the hit_pair_ratio was 112.94. For the sequence MDDEYEAYHSLFLSLL [mut_04376], the hit_pair_ratio is listed as 3.28. Take MDDDYPAYHSLFLSLL [mut_04421]: the hit_pair_ratio is reported as 1.34. Same read-out and setting: to MDDDIEAYHSLFLSLL [mut_04399] belongs 3.38; to MDDDYELYHSLFLSLL [mut_04436], 7.38; to MDPDYEAYHSLFLSLL [mut_04367], 337.92.

MDDDYEDYHSLFLSLL [mut_04429]: the hit_pair_ratio came to 4.40.

The sequence MDDPYEAYHSLFLSLL [mut_04385] returned a hit_pair_ratio of 4.13. The same measure, in the same setting: for PDDDYEAYHSLFLSLL [mut_04331] the value was 10.25; for MDDDYSAYHSLFLSLL [mut_04424], 84.48; for MDNDYEAYHSLFLSLL [mut_04366], 19.88. On the same count and under the same terms, for MDDDYEPYHSLFLSLL [mut_04439] the value was 9.13; for MDIDYEAYHSLFLSLL [mut_04362], 337.92. In the case of MDDSYEAYHSLFLSLL [mut_04388], the hit_pair_ratio turned out to be 4.76. LDDDYEAYHSLFLSLL [mut_04329] displayed a hit_pair_ratio of 1.88. Take MDDDDEAYHSLFLSLL [mut_04394]: the hit_pair_ratio came out at 12.10.

For the sequence MNDDYEAYHSLFLSLL [mut_04348], the hit_pair_ratio came out at 14.75. Same read-out and setting: to MRDDYEAYHSLFLSLL [mut_04351] belongs 4.58; to VDDDYEAYHSLFLSLL [mut_04336], 42.24; to MDDDYNAYHSLFLSLL [mut_04420], 2.54.

MDDDFEAYHSLFLSLL [mut_04396]: the hit_pair_ratio stood at 37.55. Still for that read-out and setting: to MDDDYVAYHSLFLSLL [mut_04426] belongs 112.64; to MMDDYEAYHSLFLSLL [mut_04347], 37.58; to IDDDYEAYHSLFLSLL [mut_04327], 43.89.

Sequence GDDDYEAYHSLFLSLL [mut_04325] registered a hit_pair_ratio of 7.04.

WDDDYEAYHSLFLSLL [mut_04337] yielded a hit_pair_ratio of 1.74. Sequence MVDDYEAYHSLFLSLL [mut_04354] showed a hit_pair_ratio of 6.06. In turn, MDDDHEAYHSLFLSLL [mut_04398] returned a hit_pair_ratio of 169.63. MDDYYEAYHSLFLSLL [mut_04392] yielded a hit_pair_ratio of 56.39. On the same count and under the same terms, for MDDDYFAYHSLFLSLL [mut_04413] the value was 168.96; for MDDWYEAYHSLFLSLL [mut_04391], 51.65.

The same experiment, now with this note: bait USP8_MIT__P40818_1_142; MLPH 482-497; ratio of averaged fractions of wild-type/mutant peptide pair, larger over smaller (direction to be read from the two fractions).
Consider SEVSDIESRIAALRAY, for which the hit_pair_ratio was determined as 1.28. For SEVSDIEMRIAALRAA, the hit_pair_ratio turned out to be 7.10. Same read-out and setting: to SEVSDIESRIAALTAA belongs 7.79; to SEVYDIESRIAALRAA, 346.56; to SEVSDTESRIAALRAA, 3.89. As to SEYSDIESRIAALRAA, the hit_pair_ratio is 1.74. Still for that read-out and setting: for SEVSDIEGRIAALRAA the value was 2.60; for SEVSEIESRIAALRAA, 1.80; for SEVRDIESRIAALRAA, 4.05. As for SEVSDIESRIAELRAA, the hit_pair_ratio was found to be 1.95. For the sequence SEVSDIENRIAALRAA, the hit_pair_ratio was 1.11. With SEVSDIESRFAALRAA, the hit_pair_ratio was 9.56. For the sequence SEVSDIESRIALLRAA, the hit_pair_ratio stood at 1.95.

SEVNDIESRIAALRAA: the hit_pair_ratio turned out to be 7.79. Still for that read-out and setting: for SEVEDIESRIAALRAA the value was 7.79; for SEVKDIESRIAALRAA, 8.70; for SEVSYIESRIAALRAA, 7.79. As to SEVSDDESRIAALRAA, the hit_pair_ratio was determined as 7.79. With SEVQDIESRIAALRAA, the hit_pair_ratio stood at 3.89. On to SEVVDIESRIAALRAA, for which the hit_pair_ratio was determined as 12.32.

With SEVSDIESRIAALRMA, the hit_pair_ratio stood at 17.19.

The experiment is the same for the next values; noted with them: sheet S3.B_ProP-PD_pairs; bait USP8_MIT__P40818_1_142; ratio within the wild-type/mutant pair, larger over smaller averaged fraction (direction from fraction_wt and fraction_mut).
SETSDIESRIAALRAA: the hit_pair_ratio is recorded as 1.00.

As to SHVSDIESRIAALRAA, the hit_pair_ratio is 1.51.

For the sequence MDDDYEAYHSLFLSAL, the hit_pair_ratio was determined as 337.92. Take MDDDYEAYHSLSLSLL: the hit_pair_ratio was 337.92.

In the case of EEVSDIESRIAALRAA, the hit_pair_ratio is listed as 7.79.

In the case of YEVSDIESRIAALRAA, the hit_pair_ratio is listed as 4.18. Same read-out and setting: for MDDDYEAYHNLFLSLL the value was 1.00; for SVVSDIESRIAALRAA, 2.60.

Consider SEFSDIESRIAALRAA, for which the hit_pair_ratio is recorded as 1.28.

Take MDDDYEAYQSLFLSLL: the hit_pair_ratio was 28.27. As for MDDDYEAYHSLFLSQL, the hit_pair_ratio is reported as 337.92. On the same count and under the same terms, to MDDDYEAYHSLFLYLL belongs 8.88. Still for that read-out and setting: to AEVSDIESRIAALRAA belongs 40.88. On the same count and under the same terms, to MDDDYEAYHSLFISLL belongs 5.63. Consider MDDDYEAYFSLFLSLL, for which the hit_pair_ratio is given as 29.21. MDDDYEAYHSLFLWLL: the hit_pair_ratio was 2.95.

For the sequence SEISDIESRIAALRAA, the hit_pair_ratio is 2.51. On the same count and under the same terms, for MDDDYEAYHMLFLSLL the value was 7.51; for MDDDYEAWHSLFLSLL, 1.40. Still for that read-out and setting: to PEVSDIESRIAALRAA belongs 7.79; to MDDDYEAYHSLFLSPL, 33.79. Same read-out and setting: to SNVSDIESRIAALRAA belongs 1.35. With MDDDYEAYHYLFLSLL, the hit_pair_ratio is reported as 1.94. The same measure, in the same setting: for SEASDIESRIAALRAA the value was 1.11; for MDDDYEAYHSMFLSLL, 168.96. For MDDDYEAYHPLFLSLL, the hit_pair_ratio is reported as 19.88.

As for MDDDYEAYHSLFLTLL, the hit_pair_ratio was determined as 2.44. The same measure, in the same setting: for MDDDYEAYHSGFLSLL the value was 337.92. On the same count and under the same terms, for MDDDYEYYHSLFLSLL the value was 2.04; for MDDDYEANHSLFLSLL, 42.28; for MDDDYEAYHSRFLSLL, 172.84. Regarding NEVSDIESRIAALRAA, the hit_pair_ratio is listed as 11.09. On the same count and under the same terms, to MDDDYEAYHSHFLSLL belongs 24.22; to SEPSDIESRIAALRAA, 2.03. Still for that read-out and setting: to MDDDYEAYHSLFLMLL belongs 26.03. On the same count and under the same terms, to MDDDYEAYHSPFLSLL belongs 169.63. SRVSDIESRIAALRAA: the hit_pair_ratio is given as 3.31.
